Values quoted from earlier work, collected in US20090239285A1, “TANDEM REAPEAT DNA CONSTRUCTS PRODUCING PROTEINS THAT ATTACK PLANT PATHOGENIC VIRUSES, FUNGI, AND BACTERIA BY DISRUPTING TRANSCRIPTION FACTORS ESSENTIAL FOR REPLICATION THEREOF IN PLANTS” (priority 2008, published 2009).

Test system: rice blast fungus Magnaporthe grisea
Details: PA treated plants; doses in range 0.5 mg/mL; cited from earlier work

O=C(O)c1ccccn1 [Picolinic acid, 2-pyridine carboxylic acid]
resistance against M. grisea: enhanced
